{
  "source": "patent US20150320709A1",
  "about": "“METHODS AND COMPOSITIONS FOR FACILITATING WEIGHT LOSS BY ADMINISTRATION OF THYROID HORMONES” (priority 2011, published 2015)",
  "assay_type_in_all_cases": "in vivo, human",
  "key": {"[1]": {"assay": "Low thyroid symptoms / clinical status of weight loss program patients on thyroid hormone treatment", "details": "for reported symptoms: Patient Example 4"}, "[2]": {"assay": "Blood pressure and pulse of weight loss program patients on thyroid hormone treatment", "method": "The first patient example is a person, 5′2″, weight 268 lbs, body mass index (BMI) 49 (nl 19-24; overweight 25-29; obesity≧30). Baseline blood pressure was 110/74, blood sugar (BS) was 153 mg/dL 10 days after their first visit. Their medical problems at baseline included obesity, type 2 diabetes mellitus (DM2), high blood pressure (HTN), fatigue, depression, and asthma. Their medications included glipizide 10 mg daily, amitriptyline 50 mg daily, metoprolol 50 mg daily, furosemide 40 mg daily, potassium chloride, lisinopril 10 mg daily, Advair Discus 500/50 twice daily (bid), and montelukast 10 mg daily. They were started on our comprehensive program. Five months after starting their weight loss treatment, they developed symptoms of hypothyroidism with constipation and fatigue. They had lost 28 lbs by this time and was having difficulty losing more weight even though they were eating less than they were before their weight loss treatment began. At the start of treatment, their FT4 was 0.9 ng/dL (nl 0.7-1.48). At the time of their low thyroid symptoms, their FT3 was 2.9 pg/mL (nl 1.71-3.71) and their FT4 was 0.91 ng/dL (nl 0.7-1.48). They were then treated with thyroid hormone (desiccated thyroid with a ratio of T4:T3 of about 4:1) at 60 mg daily for 6 days to acclimate, then increased to 120 mg daily. […] After two years on their weight loss treatment, their weight was 231 lbs. […] We tested for rT3 at this point. Their labs on the 150 mg dose of desiccated thyroid were: rT3 394 pg/mL (nl 90-350), FT3 3.94 pg/mL (nl 1.71-3.71), and FT4 1.24 ng/dL (nl 0.7-1.48). The task of bringing down their rT3 was then addressed. Over a period of a few months, their desiccated thyroid hormone was discontinued and instead the patient was given gradually increasing doses of T3 only, starting at 20 mcg daily and gradually increasing the T3 to 60 mcg bid. Five months after starting on T3 with increasing doses, their weight had dropped to 209 lbs. Their BP was 118/66 mmHg with pulse of 74 on lisinopril 10 mg daily, metoprolol 50 mg bid, and furosemide 40 mg daily. Instead of glipizide, they were taking metformin 500 mg bid. […] Their most recent labs on 60 mcg bid of T3 were FT3 3.8 pg/mL (nl 1.71-3.71), FT4 0.64 ng/dL (nl 0.7-1.48) and rT3 137 pg/mL (nl 90-350). Four months prior to this visit their BS was 125 mg/dl.\nThe second patient example is a person, 5′2″, weight 150 lbs, BMI 28 (nl 18.5-24.9; overweight 25-29.9; obesity≧30), with HTN. Their blood pressure was slightly elevated at 148/85 (on lisinopril 5 mg daily). Their medical problems at baseline included history of Hashimoto's thyroiditis, borderline high TSH, elevated lipids, and HTN. Their medications were lisinopril 5 mg daily, estradiol 2 mg daily, and rofecoxib 25 mg daily for osteoarthritis of their large joints. […]"}, "[3]": {"assay": "Body weight of weight loss program patients on thyroid hormone treatment", "method": "The first patient example is a person, 5′2″, weight 268 lbs, body mass index (BMI) 49 (nl 19-24; overweight 25-29; obesity≧30). Baseline blood pressure was 110/74, blood sugar (BS) was 153 mg/dL 10 days after their first visit. Their medical problems at baseline included obesity, type 2 diabetes mellitus (DM2), high blood pressure (HTN), fatigue, depression, and asthma. Their medications included glipizide 10 mg daily, amitriptyline 50 mg daily, metoprolol 50 mg daily, furosemide 40 mg daily, potassium chloride, lisinopril 10 mg daily, Advair Discus 500/50 twice daily (bid), and montelukast 10 mg daily. They were started on our comprehensive program. Five months after starting their weight loss treatment, they developed symptoms of hypothyroidism with constipation and fatigue. They had lost 28 lbs by this time and was having difficulty losing more weight even though they were eating less than they were before their weight loss treatment began. At the start of treatment, their FT4 was 0.9 ng/dL (nl 0.7-1.48). At the time of their low thyroid symptoms, their FT3 was 2.9 pg/mL (nl 1.71-3.71) and their FT4 was 0.91 ng/dL (nl 0.7-1.48). They were then treated with thyroid hormone (desiccated thyroid with a ratio of T4:T3 of about 4:1) at 60 mg daily for 6 days to acclimate, then increased to 120 mg daily. […] After two years on their weight loss treatment, their weight was 231 lbs. […]"}, "[4]": {"details": "Patient Example 1, on T3 only, with lisinopril, metoprolol, furosemide"}, "[5]": {"details": "Patient Example 2, T3 only, 25 mcg bid"}},
  "data": [
    {"smiles": "N[C@@H](Cc1cc(I)c(Oc2ccc(O)c(I)c2)c(I)c1)C(=O)O", "note": "[T3, (2S)-2-amino-3-[4-(4-hydroxy-3-iodo-phenoxy)-3,5-diiodo-phenyl]propanoic acid]", "values": [
      {"measurement": "low thyroid symptoms", "setting": "[1]; Patient Example 3, T3 25 mcg t.i.d. alone, about a week after stopping desiccated thyroid", "result": "low thyroid symptoms returned"},
      {"measurement": "reported symptoms", "setting": "[1]; T3 50 mcg 2 PO q am and 1 PO 8-10 hours later, initial visit", "result": "feeling cold, hair loss and nail peeling"},
      {"measurement": "reported symptoms", "setting": "[1]; same T3 dose (not decreased), over 6 weeks later", "result": "continued to report suffering from fatigue and coldness"},
      {"measurement": "BP", "setting": "[2]; [4]", "result": "118/66"},
      {"measurement": "pulse", "setting": "[2]; [4]", "result": 74},
      {"measurement": "pulse", "setting": "[2]; [5]", "result": 72},
      {"measurement": "BP", "setting": "[2]; Patient Example 2, T3 only, 25 mcg bid, on no medications", "result": "122/80"},
      {"measurement": "weight", "setting": "[3]; Patient Example 1, five months after starting T3 only, 20 mcg daily increasing to 60 mcg bid", "result": 209, "unit": "lbs"},
      {"measurement": "weight", "setting": "[3]; [5]", "result": 125, "unit": "lbs"}
    ]}
  ]
}
